Legend:
[1] = molecular target: GABA autoreceptor; assay: antagonist activity at GABA autoreceptors by blockade of agonist (muscimol)-induced inhibition of potassium-evoked [3H]-GABA release from rat cortex slices in vitro (Procedure 1); type: biochemical; conditions: for IC50: inhibition of the effect of a single concentration of muscimol, read-out: IC50 value (GABA autoreceptor antagonism); for Antagonism at GABA autoreceptor pA2 values: Procedure 1, agonist muscimol, rat cerebral cortex slices
Text: (§1) Advantageously compounds of formula I appear to be selective in that they display little or no activity at GABAA receptors. The following test procedures were used to measure antagonist activity at (a) GABA autoreceptors by blockade of agonist-induced inhibition of potassium-evoked GABA release from rat cortex in vitro (Procedure 1); and (b) GABAA receptors by antagonism of agonist-induced depolarization of the isolated rat vagus nerve (Procedure 2):
Slices (0.25×0.25×2.0 mm) of rat cerebral cortex are prepared using a McIlwain tissue chopper. The slices are incubated in Krebs-Henseleit solution containing [^3 H]-GABA (10^-7 M) in the presence of amino-oxyacetic acid (AOAA) for 20 minutes at 37° C., rinsed with 5ml aliquots of Krebs-Henseleit solution and transferred to 10 superfusion chambers (volume 300μl). The slices are continuously superfused with Krebs-Henseleit solution (0.4 ml min^-1) containing AOAA (10^-5 M) and fractions of the superfusate collected every 4 minutes. Transmitter release is induced by 4 minute exposure to a Krebs-Henseleit solution containing 25 mM potassium ion (with concomitant reduction in sodium to maintain osmolarity) after 68 […] and 92 (S2) minutes of superfusion. The antagonist compound under study is added to the superfusing medium 10 minutes prior to the first potassium stimulation and remains throughout the superfusion. The GABA autoreceptor is activated by adding the agonist muscimol 20 minutes before the second potassium stimulation. The residual radioactivity in the slices at the end of the experiment together with that in the superfusate. fractions is measured by liquid scintillation counting
Calculations: The amount of radioactivity in each fraction is expressed as a percentage of the total radioactivity in the tissue at the start of the respective collection period. The amount of radioactivity released above basal by the increased potassium is calculated and the ratio S2/S1 obtained. The S2/S1 ratio from muscimol-treated slices is expressed as a percentage of the control drug-free S2/S1 ratio. A dose-response curve for the agonist muscimol is constructed and the effect of antagonists is measured by their ability to displace this dose-response curve to the right. From this measurement a pA2 value can be calculated. Alternatively, an IC50 value for antagonists can be calculated by inhibiting the effect of a single concentration of muscimol with increasing concentrations of antagonist.

[2] = system: GABAA receptor; assay: antagonism at GABAA receptors: antagonism of GABA-induced depolarization of the isolated rat vagus nerve (Procedure 2); type: biochemical
Text: as §1
Male Sprague-Dawley rats (250-400g) are killed by a blow to the head and cervical dislocation. The cervical vagus nerves are transferred into Krebs' solution at room temperature and the connective tissue sheath removed. The vagus nerves are placed in two-compartment Perspex baths to permit extracellular recording of agonist induced depolarizations. Each nerve projects from one compartment to the next by way of a grease filled slot, the grease serving to insulate the compartments from each other. […] One compartment is continuously perfused (5ml min^-1) with Krebs' solution at 27° C. to which agonist and antagonist drugs are added. […] Non-cumulative concentration-response curves to GABA (10^-6 to 3×10^-4 M) are obtained using a 5 min contact time and 10-20 min wash period and the effect of the test antagonist compound is measured by its ability to shift this concentration-response curve to the right.

[3] = system: GABA autoreceptor; conditions: previously shown; cited from earlier work
[4] = system: GABAA receptor; conditions: non-selective; cited from earlier work
[5] = known; cited from earlier work

IC50 [1]	Antagonism at GABA autoreceptor pA2 values [1]	Compound	other results
20 nM	–	c1ccc2c(c1)CCN[C@H]2[C@@H]1CCCO1 (single isomer, unassigned) [(-) enantiomer of Compound C]	–
8600 nM	–	c1ccc2c(c1)CCN[C@H]2[C@@H]1CCCO1 (single isomer, unassigned) [(+) isomer of Compound C]	–
–	9.2	CN1CCc2ccccc2[C@@H]1[C@@H]1CCCO1 (relative stereo) [Compound D, 1RS, 2'SR-1-(2-Tetrahydrofuranyl)-2-methyl-1,2,3,4-tetrahydroisoquinoline]	Antagonism at GABAA receptors ([2]; at 10^-5 M): inactive
–	8.5	c1ccc2c(c1)CCN[C@H]2[C@@H]1CCCO1 (relative stereo) [Compound C, 1RS, 2'SR-1-(2-Tetrahydrofuranyl)-1,2,3,4-tetrahydroisoquinoline]	–
–	5.2	COc1cc2c(cc1OC)[C@H]([C@H]1CCCO1)NCC2 (relative stereo) [B, 1RS,2'RS-1-(2-Tetrahydrofuranyl) -1,2,3,4- Tetrahydro-6,7-dimethoxyisoquinoline]	–
480 nM	–	Oc1ccc(C2NCCc3cc(O)c(O)cc32)cc1 (stereo not drawn) [Example 12, 1-(4-Hydroxyphenyl)-6,7-dihydroxy-1,2,3,4-tetrahydroisoquinoline]	–
2.7 nM	–	CN1CCc2ccccc2[C@@H]1[C@@H]1CCCO1 (single isomer, unassigned) [(+) isomer of Compound D, (+)1R*,2'S*-1-(2-tetrahydrofuranyl)-2-methyl-1,2,3,4-tetrahydroisoquinoline]	–
–	7.0	COc1cc2c(cc1OC)[C@H]([C@@H]1CCCO1)NCC2 (relative stereo) [A, 1RS,2'SR-1-(2-Tetrahydrofuranyl)-1,2,3,4-tetrahydro-6,7 dimethoxyisoquinoline]	Antagonism at GABAA receptors ([2]; at 10^-4 M): inactive
–	8.4	c1csc(C2NCCc3ccccc32)c1 (racemic) [E, 1,2,3,4-Tetrahydro-1-(2-thienyl)isoquinoline]	–
260 nM	–	CN1CCc2ccccc2[C@@H]1[C@@H]1CCCO1 (single isomer, unassigned) [(-) isomer of Compound D, (-) 1R*,2'S*-1-(2-tetrahydrofuranyl)-2-methyl-1,2,3,4-tetrahydroisoquinoline]	–
–	–	CN1CCc2cc3c(cc2[C@H]1[C@@H]1OC(=O)c2c1ccc1c2OCO1)OCO3 [bicuculline]	activity at GABA autoreceptor [3]: antagonists at the GABA autoreceptor; activity at GABAA receptor [4]: also active at the GABAA receptor; convulsant action [5]: known convulsants
–	–	picrotoxin	activity at GABA autoreceptor [3]: antagonists at the GABA autoreceptor; activity at GABAA receptor [4]: also active at the GABAA receptor; convulsant action [5]: known convulsants

Reference: patent publication US5118690A, “Pharmaceutical tetrahydroisoquinolines” (John Wyeth & Brother Limited, priority 1989, dated 1992)
